# Data taken from patent publication US20230085307A1, “PYRIDAZINONE COMPOUND AND HERBICIDE” (NISSAN CHEMICAL CORPORATION, priority 2019, published 2023).
# Tested on: late watergrass
# Assay: Test Example 1: herbicidal activity, application before weed generation under submerged conditions (Table 16, symbol A)
# Type: in vivo, late watergrass (Echinochloa oryzicola)
# Conditions: amount of applied herbicide 320 g/ha
# Procedure, shortened: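 Alluvial soil was flooded to 4 cm depth, weed seeds were sown mixed and 2.5-leaf rice seedlings were transplanted. On sowing day, the compound's emulsion, diluted in water to a set dose, was applied to the water surface. Plants grew at 25–30 °C and were scored 0–5 after three weeks.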
row,Compound,"Herbicidal effect, A: late watergrass"
1,Cc1nn(C)c(=O)c(-c2c(-c3ccc4c(c3)OCCO4)sc3cc(F)ccc23)c1O [3-013],3 (Herbicidal rate of 40% or more and less than 70%)
2,CCCC(=O)Oc1c(C)nn(C)c(=O)c1-c1c(-c2ccc3c(c2)OCCO3)sc2cc(F)ccc12 [3-014],5 (Herbicidal rate of 90% or more (almost completely withered))

# Tested on: oval-leafed pondweed
# Assay: Test Example 2: herbicidal activity, application during weed generation under submerged conditions (Table 17, symbol C)
# Type: in vivo, oval-leafed pondweed (Monochoria vaginalis)
# Conditions: AAH 320 g/ha; application during weed generation, submerged conditions
# Procedure, shortened: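 Wagner pot, alluvial soil, 4 cm flood; mixed sowing of all species; greenhouse 25° C.–30° C. Emulsifiable formulation, water-diluted to predetermined dose, applied to paddy water at 1–2 leaf stage. Effect rated at 3 wk using the earlier test's scoring criteria.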
row,Compound,"herbicidal effect rating, C: oval-leafed pondweed"
1,Cc1nn(C)c(=O)c(-c2c(-c3ccc4c(c3)OCCO4)sc3cc(F)ccc23)c1O [3-013],3 (Herbicidal rate of 40% or more and less than 70%)
2,CCCC(=O)Oc1c(C)nn(C)c(=O)c1-c1c(-c2ccc3c(c2)OCCO3)sc2cc(F)ccc12 [3-014],5 (Herbicidal rate of 90% or more (almost completely withered))

# Tested on: barnyard grass
# Assay: Test Example 3: herbicidal effect by foliage application, Wagner pot (Table 18, symbol H)
# Type: in vivo, barnyard grass (Echinochloa crus-galli)
# Conditions: amount of applied herbicide 320 g/ha
# Procedure, shortened: (§1)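 Plants were sown in alluvial soil held under 0.1–0.5 cm standing water and grown 14 days in a greenhouse at 25–30 °C. An emulsifiable formulation, water-diluted to the set dose, was then sprayed onto the foliage, and effects were scored three weeks later using previously defined criteria.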
row,Compound,herbicidal effect on H: barnyard grass
1,Cc1nn(C)c(=O)c(-c2c(-c3ccc4c(c3)OCCO4)sc3cc(F)ccc23)c1O [3-013],4 (Herbicidal rate of 70% or more and less than 90%)
2,CCCC(=O)Oc1c(C)nn(C)c(=O)c1-c1c(-c2ccc3c(c2)OCCO3)sc2cc(F)ccc12 [3-014],5 (Herbicidal rate of 90% or more (almost completely withered))

# Tested on: Chinese sprangletop
# Assay: Test Example 3: herbicidal effect by foliage application, Wagner pot (Table 18, symbol D)
# Type: in vivo, chinese sprangletop (Leptochloa chinensis)
# Conditions: amount of applied herbicide 320 g/ha
# Procedure, shortened: as §1
row,Compound,herbicidal effect on D: Chinese sprangletop
1,Cc1nn(C)c(=O)c(-c2c(-c3ccc4c(c3)OCCO4)sc3cc(F)ccc23)c1O [3-013],4 (Herbicidal rate of 70% or more and less than 90%)
2,CCCC(=O)Oc1c(C)nn(C)c(=O)c1-c1c(-c2ccc3c(c2)OCCO3)sc2cc(F)ccc12 [3-014],0 (Herbicidal rate of 5% or less (almost no effect))

# Tested on: southern crabgrass
# Assay: Test Example 4: herbicidal effect by soil treatment (Table 19, symbol F)
# Type: in vivo, southern crabgrass (Digitaria ciliaris)
# Conditions: amount of applied herbicide 320 g/ha
# Procedure, shortened: (§2)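 Herbicidal effect was rated 3 weeks after treatment, using the scoring criteria of an earlier test. The compound, formulated as an emulsion and diluted in water to a set herbicide amount, had been sprayed uniformly on soil over freshly sown seeds. Growth took place in a greenhouse at 25° C. to 30° C.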
row,Compound,"herbicidal effect, F: southern crabgrass"
1,Cc1nn(C)c(=O)c(-c2c(-c3ccc4c(c3)OCCO4)sc3cc(F)ccc23)c1O [3-013],4 (Herbicidal rate of 70% or more and less than 90%)
2,CCCC(=O)Oc1c(C)nn(C)c(=O)c1-c1c(-c2ccc3c(c2)OCCO3)sc2cc(F)ccc12 [3-014],0 (Herbicidal rate of 5% or less (almost no effect))

# Tested on: green foxtail
# Assay: Test Example 4: herbicidal effect by soil treatment (Table 19, symbol G)
# Type: in vivo, green foxtail (Setaria viridis)
# Conditions: amount of applied herbicide 320 g/ha
# Procedure, shortened: as §2
row,Compound,"herbicidal effect, G: green foxtail"
1,Cc1nn(C)c(=O)c(-c2c(-c3ccc4c(c3)OCCO4)sc3cc(F)ccc23)c1O [3-013],4 (Herbicidal rate of 70% or more and less than 90%)
2,CCCC(=O)Oc1c(C)nn(C)c(=O)c1-c1c(-c2ccc3c(c2)OCCO3)sc2cc(F)ccc12 [3-014],0 (Herbicidal rate of 5% or less (almost no effect))

# Tested on: barnyard grass
# Assay: Test Example 4: herbicidal effect by soil treatment (Table 19, symbol H)
# Type: in vivo, barnyard grass (Echinochloa crus-galli)
# Conditions: amount of applied herbicide 320 g/ha
# Procedure, shortened: as §2
row,Compound,"herbicidal effect, H: barnyard grass"
1,Cc1nn(C)c(=O)c(-c2c(-c3ccc4c(c3)OCCO4)sc3cc(F)ccc23)c1O [3-013],5 (Herbicidal rate of 90% or more (almost completely withered))
2,CCCC(=O)Oc1c(C)nn(C)c(=O)c1-c1c(-c2ccc3c(c2)OCCO3)sc2cc(F)ccc12 [3-014],0 (Herbicidal rate of 5% or less (almost no effect))

# Tested on: blackgrass
# Assay: Test Example 4: herbicidal effect by soil treatment (Table 19, symbol J)
# Type: in vivo, blackgrass (Alopecurus myosuroides)
# Conditions: amount of applied herbicide 320 g/ha
# Procedure, shortened: as §2
row,Compound,"herbicidal effect, J: blackgrass"
1,Cc1nn(C)c(=O)c(-c2c(-c3ccc4c(c3)OCCO4)sc3cc(F)ccc23)c1O [3-013],0 (Herbicidal rate of 5% or less (almost no effect))
2,CCCC(=O)Oc1c(C)nn(C)c(=O)c1-c1c(-c2ccc3c(c2)OCCO3)sc2cc(F)ccc12 [3-014],0 (Herbicidal rate of 5% or less (almost no effect))

# Tested on: windgrass
# Assay: Test Example 4: herbicidal effect by soil treatment (Table 19, symbol L)
# Type: in vivo, windgrass (Apera spica-venti)
# Conditions: amount of applied herbicide 320 g/ha
# Procedure, shortened: as §2
row,Compound,"herbicidal effect, L: windgrass"
1,Cc1nn(C)c(=O)c(-c2c(-c3ccc4c(c3)OCCO4)sc3cc(F)ccc23)c1O [3-013],0 (Herbicidal rate of 5% or less (almost no effect))
2,CCCC(=O)Oc1c(C)nn(C)c(=O)c1-c1c(-c2ccc3c(c2)OCCO3)sc2cc(F)ccc12 [3-014],0 (Herbicidal rate of 5% or less (almost no effect))

# Tested on: redroot pigweed
# Assay: Test Example 4: herbicidal effect by soil treatment (Table 19, symbol N)
# Type: in vivo, redroot pigweed (Amaranthus retroflexus)
# Conditions: amount of applied herbicide 320 g/ha
# Procedure, shortened: as §2
row,Compound,"herbicidal effect, N: redroot pigweed"
1,Cc1nn(C)c(=O)c(-c2c(-c3ccc4c(c3)OCCO4)sc3cc(F)ccc23)c1O [3-013],4 (Herbicidal rate of 70% or more and less than 90%)
2,CCCC(=O)Oc1c(C)nn(C)c(=O)c1-c1c(-c2ccc3c(c2)OCCO3)sc2cc(F)ccc12 [3-014],3 (Herbicidal rate of 40% or more and less than 70%)

# Tested on: chickweed
# Assay: Test Example 4: herbicidal effect by soil treatment (Table 19, symbol P)
# Type: in vivo, common chickweed (Stellaria media)
# Conditions: amount of applied herbicide 320 g/ha
# Procedure, shortened: as §2
row,Compound,"herbicidal effect, P: chickweed"
1,Cc1nn(C)c(=O)c(-c2c(-c3ccc4c(c3)OCCO4)sc3cc(F)ccc23)c1O [3-013],4 (Herbicidal rate of 70% or more and less than 90%)
2,CCCC(=O)Oc1c(C)nn(C)c(=O)c1-c1c(-c2ccc3c(c2)OCCO3)sc2cc(F)ccc12 [3-014],4 (Herbicidal rate of 70% or more and less than 90%)

# Tested on: southern crabgrass
# Assay: Test Example 5: herbicidal effect by foliage application, plastic box (Table 20, symbol F)
# Type: in vivo, southern crabgrass (Digitaria ciliaris)
# Conditions: foliage application, 320 g/ha, three weeks after application
# Procedure, shortened: (§3)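 Foliar spray test: emulsion formulation diluted in water to a set application rate, sprayed onto 14-day-old plants raised in diluvial soil at 25° C to 30° C under glass. Both herbicidal effect and crop effect rated visually three weeks later.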
row,Compound,"F: southern crabgrass, herbicidal effect grade"
1,Cc1nn(C)c(=O)c(-c2c(-c3ccc4c(c3)OCCO4)sc3cc(F)ccc23)c1O [3-013],4 (Herbicidal rate of 70% or more and less than 90%)
2,CCCC(=O)Oc1c(C)nn(C)c(=O)c1-c1c(-c2ccc3c(c2)OCCO3)sc2cc(F)ccc12 [3-014],3 (Herbicidal rate of 40% or more and less than 70%)

# Tested on: green foxtail
# Assay: Test Example 5: herbicidal effect by foliage application, plastic box (Table 20, symbol G)
# Type: in vivo, green foxtail (Setaria viridis)
# Conditions: foliage application, 320 g/ha, three weeks after application
# Procedure, shortened: as §3
row,Compound,"G: green foxtail, herbicidal effect grade"
1,Cc1nn(C)c(=O)c(-c2c(-c3ccc4c(c3)OCCO4)sc3cc(F)ccc23)c1O [3-013],4 (Herbicidal rate of 70% or more and less than 90%)
2,CCCC(=O)Oc1c(C)nn(C)c(=O)c1-c1c(-c2ccc3c(c2)OCCO3)sc2cc(F)ccc12 [3-014],3 (Herbicidal rate of 40% or more and less than 70%)

# Tested on: blackgrass
# Assay: Test Example 5: herbicidal effect by foliage application, plastic box (Table 20, symbol J)
# Type: in vivo, blackgrass (Alopecurus myosuroides)
# Conditions: foliage application, 320 g/ha, three weeks after application
# Procedure, shortened: as §3
row,Compound,"J: blackgrass, herbicidal effect grade"
1,Cc1nn(C)c(=O)c(-c2c(-c3ccc4c(c3)OCCO4)sc3cc(F)ccc23)c1O [3-013],0 (Herbicidal rate of 5% or less (almost no effect))
2,CCCC(=O)Oc1c(C)nn(C)c(=O)c1-c1c(-c2ccc3c(c2)OCCO3)sc2cc(F)ccc12 [3-014],1 (Herbicidal rate of 5% or more and less than 20%)

# Tested on: redroot pigweed
# Assay: Test Example 5: herbicidal effect by foliage application, plastic box (Table 20, symbol N)
# Type: in vivo, redroot pigweed (Amaranthus retroflexus)
# Conditions: foliage application, 320 g/ha, three weeks after application
# Procedure, shortened: as §3
row,Compound,"N: redroot pigweed, herbicidal effect grade"
1,Cc1nn(C)c(=O)c(-c2c(-c3ccc4c(c3)OCCO4)sc3cc(F)ccc23)c1O [3-013],5 (Herbicidal rate of 90% or more (almost completely withered))
2,CCCC(=O)Oc1c(C)nn(C)c(=O)c1-c1c(-c2ccc3c(c2)OCCO3)sc2cc(F)ccc12 [3-014],5 (Herbicidal rate of 90% or more (almost completely withered))

# Tested on: false cleavers
# Assay: Test Example 5: herbicidal effect by foliage application, plastic box (Table 20, symbol Q)
# Type: in vivo, false cleavers (Galium spurium)
# Conditions: foliage application, 320 g/ha, three weeks after application
# Procedure, shortened: as §3
row,Compound,"Q: false cleavers, herbicidal effect grade"
1,Cc1nn(C)c(=O)c(-c2c(-c3ccc4c(c3)OCCO4)sc3cc(F)ccc23)c1O [3-013],5 (Herbicidal rate of 90% or more (almost completely withered))
2,CCCC(=O)Oc1c(C)nn(C)c(=O)c1-c1c(-c2ccc3c(c2)OCCO3)sc2cc(F)ccc12 [3-014],4 (Herbicidal rate of 70% or more and less than 90%)

# Tested on: persian speedwell
# Assay: Test Example 5: herbicidal effect by foliage application, plastic box (Table 20, symbol R)
# Type: in vivo, Persian speedwell (Veronica persica)
# Conditions: foliage application, 320 g/ha, three weeks after application
# Procedure, shortened: as §3
row,Compound,"R: persian speedwell, herbicidal effect grade"
1,Cc1nn(C)c(=O)c(-c2c(-c3ccc4c(c3)OCCO4)sc3cc(F)ccc23)c1O [3-013],5 (Herbicidal rate of 90% or more (almost completely withered))
2,CCCC(=O)Oc1c(C)nn(C)c(=O)c1-c1c(-c2ccc3c(c2)OCCO3)sc2cc(F)ccc12 [3-014],5 (Herbicidal rate of 90% or more (almost completely withered))
